Source: US6841519B1, “Isoxazoline derivatives and herbicides containing the same as the active ingredient” (Kumiai Chemical Industry Co., Ltd., priority 1999, dated 2005)

Tests used:
Format in all cases: in vivo
rice (Or) = test: Test for crop selectivity by paddy field soil treatment (Test Example 4), phytotoxicity to rice; conditions: transplanted two-leaf stage rice, 100 g/10 a active ingredient, 21st day
Description: (§1) [table] <Test Example 4> Test For Crop Selectivity By Paddy Field Soil Treatment A paddy field soil was filled in a plastic pot of 100 cm^2 and subjected to puddling. Seeds of Echinochloa oryzicola Vasing. (Eo) were sowed; two-leaf stage seedlings of rice (Or) were transplanted in a depth of 2 cm; and water was filled in a depth of 3 cm. Next day, wettable powders produced in accordance with the Formulation 1 were diluted with water and dropped on the water surface. The application amount of each wettable powder was 100 g per 10 ares in terms of the active ingredient. Then, breeding was made in a greenhouse. At the 21st day from the treatment, the phytotoxicity and herbicidal effect of each wettable powder were examined in accordance with the standard shown in Table 40.

[1] = system: Echinochloa oryzicola Vasing. (Eo); test: Test for crop selectivity by paddy field soil treatment (Test Example 4), herbicidal effect on Eo; conditions: 100 g/10 a active ingredient, 21st day
Description: as §1

[2] = system: Echinochloa oryzicola Vasing. (Eo); test: Test for herbicidal effect by paddy field soil treatment (Test Example 1); conditions: application amount (active ingredient) 100 g/10 a, examined at the 21st day from the treatment, index per Table 40
How it was run: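 Scored on a standard scale at day 21 in the greenhouse: herbicidal effect of wettable powder applied to flooded water (3 cm depth) at 100 g a.i./10 ares, one day after sowing Eo into puddled paddy soil.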

[3] = system: Echinochloa crus-galli (L.) Beauv. var. crusgall (Ec); test: Test for herbicidal effect by upland field soil treatment (Test Example 2), Ec
How it was run: (§2)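 Pre-emergence soil treatment: wettable powder diluted in water and sprayed on soil just sown with Ec and Se seeds, delivering 100 g active ingredient per 10 ares in 100 liters per 10 ares. Herbicidal effect was rated against a fixed scale 21 days later, after greenhouse growth.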

[4] = system: Setaria viridis (L.) Beauv. (Se); test: Test for herbicidal effect by upland field soil treatment (Test Example 2), Se
How it was run: as §2

[5] = 100 g/10 a active ingredient, examined at 21st day
[6] = application amount (active ingredient) 100 g/10 a, examined at the 21st day from the treatment, index per Table 40

Row | Compound | Phytotoxicity to Or (rice (Or)) | Herbicidal effect to Eo [1] | Herbicidal effect to Eo [2] | Herbicidal effect to Ec [3, 5] | Herbicidal effect to Se [4, 5] | Herbicidal effect to Ec [3, 6] | Herbicidal effect to Se [4, 6]
1 | CCCCOc1cccc(C)c1CS(=O)(=O)C1=NOC(C)(C)C1 [Compound 1-605] | 1 (A herbicidal effect or phytotoxicity of 10% to less than 30%) | 5 (A herbicidal effect or phytotoxicity of 90% or more) | 5 (A herbicidal effect or phytotoxicity of 90% or more) | 5 (A herbicidal effect or phytotoxicity of 90% or more) | 4 (A herbicidal effect or phytotoxicity of 70% to less than 90%) |  | 
2 | CS(=O)(=O)C1=NOC2(CCC2)C1 [Compound 2-29] | 1 (A herbicidal effect or phytotoxicity of 10% to less than 30%) | 5 (A herbicidal effect or phytotoxicity of 90% or more) | 5 (A herbicidal effect or phytotoxicity of 90% or more) | 5 (A herbicidal effect or phytotoxicity of 90% or more) | 5 (A herbicidal effect or phytotoxicity of 90% or more) |  | 
3 | CCC1(C)CC(S(=O)(=O)Cc2cccc(C#N)c2)=NO1 (stereo not drawn) [Compound 1-328] | 0 (A herbicidal effect or phytotoxicity of 0% to less than 10%) | 5 (A herbicidal effect or phytotoxicity of 90% or more) | 5 (A herbicidal effect or phytotoxicity of 90% or more) |  |  | 4 (A herbicidal effect or phytotoxicity of 70% to less than 90%) | 4 (A herbicidal effect or phytotoxicity of 70% to less than 90%)
4 | CCCOC(=O)c1ccccc1CS(=O)(=O)C1=NOC(C)(C)C1 [Compound 1-594] | 1 (A herbicidal effect or phytotoxicity of 10% to less than 30%) | 5 (A herbicidal effect or phytotoxicity of 90% or more) | 5 (A herbicidal effect or phytotoxicity of 90% or more) | 5 (A herbicidal effect or phytotoxicity of 90% or more) | 4 (A herbicidal effect or phytotoxicity of 70% to less than 90%) |  | 
5 | CC1(C)CC(S(=O)(=O)Cc2ccccc2C(=O)OC2CCCC2)=NO1 [Compound 1-601] | 1 (A herbicidal effect or phytotoxicity of 10% to less than 30%) | 5 (A herbicidal effect or phytotoxicity of 90% or more) | 5 (A herbicidal effect or phytotoxicity of 90% or more) | 5 (A herbicidal effect or phytotoxicity of 90% or more) |  |  | 
6 | CCCCOCc1ccccc1CS(=O)(=O)C1=NOC(C)(C)C1 [Compound 1-615] | 1 (A herbicidal effect or phytotoxicity of 10% to less than 30%) | 5 (A herbicidal effect or phytotoxicity of 90% or more) | 5 (A herbicidal effect or phytotoxicity of 90% or more) | 5 (A herbicidal effect or phytotoxicity of 90% or more) | 5 (A herbicidal effect or phytotoxicity of 90% or more) |  | 
7 | CCCCOC(=O)c1ccccc1CS(=O)(=O)C1=NOC(C)(C)C1 [Compound 1-596] | 1 (A herbicidal effect or phytotoxicity of 10% to less than 30%) | 5 (A herbicidal effect or phytotoxicity of 90% or more) | 5 (A herbicidal effect or phytotoxicity of 90% or more) | 5 (A herbicidal effect or phytotoxicity of 90% or more) | 5 (A herbicidal effect or phytotoxicity of 90% or more) |  | 
8 | CCCCOC(=O)c1cccc(Cl)c1CS(=O)(=O)C1=NOC(C)(C)C1 [Compound 1-622] | 1 (A herbicidal effect or phytotoxicity of 10% to less than 30%) | 5 (A herbicidal effect or phytotoxicity of 90% or more) | 5 (A herbicidal effect or phytotoxicity of 90% or more) | 5 (A herbicidal effect or phytotoxicity of 90% or more) |  |  | 
9 | CCOCCOc1ccccc1CS(=O)(=O)C1=NOC(C)(C)C1 [Compound 1-580] | 1 (A herbicidal effect or phytotoxicity of 10% to less than 30%) | 5 (A herbicidal effect or phytotoxicity of 90% or more) | 5 (A herbicidal effect or phytotoxicity of 90% or more) | 5 (A herbicidal effect or phytotoxicity of 90% or more) |  |  | 
10 | O=S(=O)(Cc1c(F)cccc1F)C1=NOC2(CCCCC2)C1 [Compound 1-384] | 0 (A herbicidal effect or phytotoxicity of 0% to less than 10%) | 5 (A herbicidal effect or phytotoxicity of 90% or more) | 5 (A herbicidal effect or phytotoxicity of 90% or more) |  |  | 5 (A herbicidal effect or phytotoxicity of 90% or more) | 4 (A herbicidal effect or phytotoxicity of 70% to less than 90%)
11 | CC(C)C1(C)CC(S(=O)(=O)Cc2c(F)cccc2F)=NO1 (stereo not drawn) [Compound 1-368] | 1 (A herbicidal effect or phytotoxicity of 10% to less than 30%) | 5 (A herbicidal effect or phytotoxicity of 90% or more) | 5 (A herbicidal effect or phytotoxicity of 90% or more) |  |  | 5 (A herbicidal effect or phytotoxicity of 90% or more) | 4 (A herbicidal effect or phytotoxicity of 70% to less than 90%)
12 | CC1(CO)CC(S(=O)(=O)Cc2c(F)cccc2F)=NO1 (stereo not drawn) [Compound 1-394] | 1 (A herbicidal effect or phytotoxicity of 10% to less than 30%) | 5 (A herbicidal effect or phytotoxicity of 90% or more) | 5 (A herbicidal effect or phytotoxicity of 90% or more) |  |  | 4 (A herbicidal effect or phytotoxicity of 70% to less than 90%) | 
13 | O=S(=O)(Cc1c(F)cccc1F)C1=NOC2CCCCCC12 (stereo not drawn) [Compound 1-518] | 1 (A herbicidal effect or phytotoxicity of 10% to less than 30%) | 5 (A herbicidal effect or phytotoxicity of 90% or more) |  | 5 (A herbicidal effect or phytotoxicity of 90% or more) | 4 (A herbicidal effect or phytotoxicity of 70% to less than 90%) |  | 
14 | CC1(C)CC(S(=O)(=O)Cc2c(Cl)cccc2C(=O)OCc2ccccc2Cl)=NO1 [Compound 1-626] | 0 (A herbicidal effect or phytotoxicity of 0% to less than 10%) | 5 (A herbicidal effect or phytotoxicity of 90% or more) | 5 (A herbicidal effect or phytotoxicity of 90% or more) |  |  |  | 
15 | CC1(C)CC(S(=O)(=O)Cc2ccccc2C(=O)OCc2cccc(Cl)c2)=NO1 [Compound 1-613] | 0 (A herbicidal effect or phytotoxicity of 0% to less than 10%) | 5 (A herbicidal effect or phytotoxicity of 90% or more) | 5 (A herbicidal effect or phytotoxicity of 90% or more) |  |  |  | 
16 | CC(C)COC(=O)c1cccc(Cl)c1CS(=O)(=O)C1=NOC(C)(C)C1 [Compound 1-624] | 1 (A herbicidal effect or phytotoxicity of 10% to less than 30%) | 5 (A herbicidal effect or phytotoxicity of 90% or more) | 5 (A herbicidal effect or phytotoxicity of 90% or more) |  |  |  | 
17 | CC(C)COC(=O)c1ccccc1CS(=O)(=O)C1=NOC(C)(C)C1 [Compound 1-598] | 1 (A herbicidal effect or phytotoxicity of 10% to less than 30%) | 5 (A herbicidal effect or phytotoxicity of 90% or more) | 5 (A herbicidal effect or phytotoxicity of 90% or more) |  |  |  | 
18 | CCC(C)OC(=O)c1cccc(Cl)c1CS(=O)(=O)C1=NOC(C)(C)C1 (stereo not drawn) [Compound 1-623] | 1 (A herbicidal effect or phytotoxicity of 10% to less than 30%) | 5 (A herbicidal effect or phytotoxicity of 90% or more) | 5 (A herbicidal effect or phytotoxicity of 90% or more) |  |  |  | 
19 | CCC1(C)CC(S(=O)(=O)Cc2ccc(OC)cc2)=NO1 (stereo not drawn) [Compound 1-230] | 0 (A herbicidal effect or phytotoxicity of 0% to less than 10%) | 5 (A herbicidal effect or phytotoxicity of 90% or more) | 5 (A herbicidal effect or phytotoxicity of 90% or more) |  |  |  | 
20 | CCCC1(C)CC([S+]([O-])Cc2c(F)cccc2F)=NO1 (stereo not drawn) [Compound 1-365] | 1 (A herbicidal effect or phytotoxicity of 10% to less than 30%) | 5 (A herbicidal effect or phytotoxicity of 90% or more) | 5 (A herbicidal effect or phytotoxicity of 90% or more) |  |  |  | 
21 | CC1(C(=O)O)CC(SCc2c(F)cccc2F)=NO1 (stereo not drawn) [Compound 1-419] | 1 (A herbicidal effect or phytotoxicity of 10% to less than 30%) | 5 (A herbicidal effect or phytotoxicity of 90% or more) | 5 (A herbicidal effect or phytotoxicity of 90% or more) |  |  |  | 
22 | CC1(C)CC(S(=O)(=O)Cc2ccccc2C(=O)OCc2ccccc2Cl)=NO1 [Compound 1-612] | 0 (A herbicidal effect or phytotoxicity of 0% to less than 10%) | 5 (A herbicidal effect or phytotoxicity of 90% or more) | 5 (A herbicidal effect or phytotoxicity of 90% or more) |  |  |  | 
